Experimental data published in ChEMBL document CHEMBL1833960, “Identification of 5,6-substituted 4-aminothieno[2,3-d]pyrimidines as LIMK1 inhibitors” (Bioorg Med Chem Lett, 2011).

Key:
LIM domain kinase 1 [1] = biological target: T1, LIM domain kinase 1 (Homo sapiens, UniProt P53667); assay: Inhibition of LIMK1 using cofilin-2 as substrate after 60 mins by Kinase-Glo assay
LIM domain kinase 1 [2] = biological target: T1, LIM domain kinase 1; assay: Inhibition of LIMK1 using cofilin-2 as substrate after 60 mins by TR-FRET assay

T1 sequence (P53667 whole entry, the tested form may be a part): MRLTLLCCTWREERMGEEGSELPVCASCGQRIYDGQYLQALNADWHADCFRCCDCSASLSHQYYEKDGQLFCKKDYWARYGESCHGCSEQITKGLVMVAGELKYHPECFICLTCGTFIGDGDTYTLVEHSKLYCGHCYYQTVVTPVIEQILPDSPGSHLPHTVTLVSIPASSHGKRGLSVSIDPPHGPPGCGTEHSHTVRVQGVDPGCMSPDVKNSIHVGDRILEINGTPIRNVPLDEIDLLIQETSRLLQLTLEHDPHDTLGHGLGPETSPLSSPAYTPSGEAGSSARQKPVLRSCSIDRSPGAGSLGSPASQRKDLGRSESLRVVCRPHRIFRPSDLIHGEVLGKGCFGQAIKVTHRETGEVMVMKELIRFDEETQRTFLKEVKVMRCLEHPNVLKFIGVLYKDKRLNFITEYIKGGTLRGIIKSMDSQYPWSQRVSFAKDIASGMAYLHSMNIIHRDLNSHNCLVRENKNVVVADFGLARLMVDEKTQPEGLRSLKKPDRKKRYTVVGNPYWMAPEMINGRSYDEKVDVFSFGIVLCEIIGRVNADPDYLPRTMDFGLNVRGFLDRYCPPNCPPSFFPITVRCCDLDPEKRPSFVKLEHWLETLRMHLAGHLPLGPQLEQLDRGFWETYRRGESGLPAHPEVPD

| SMILES | IC50 (LIM domain kinase 1 [1]) | IC50 (LIM domain kinase 1 [2]) |
| --- | --- | --- |
| CN(C)c1ncnc2sc3c(c12)CCCC3 | > 100 µM | > 100 µM |
| COc1ccc(Nc2ncnc3sc4c(c23)CCCC4)cc1 | > 100 µM | > 100 µM |
| OCCNc1ncnc2sc3c(c12)CCCC3 | > 100 µM | > 100 µM |
| c1ccc(CCNc2ncnc3sc4c(c23)CCCC4)cc1 | > 100 µM | > 100 µM |
| Cc1sc2ncnc(N)c2c1C | 4.4 µM | 4.4 µM |
| Nc1nc(-c2ccccc2)nc2sc3c(c12)CCCC3 | > 100 µM | > 100 µM |
| CC1(C)Cc2c(sc3ncnc(N)c23)CO1 | 12.7 µM | 12.7 µM |
| Nc1ncnc2c1sc1ccccc12 | 7 µM | – |
| Cn1c2ccccc2c2ncnc(N)c21 | 4 µM | – |
| Nc1ncnc2c1sc1cc(-c3ccccc3)ccc12 | 0.3 µM | – |
| Cn1c2cc(-c3ccccc3)ccc2c2ncnc(N)c21 | 0.26 µM | – |
| COc1ccc(-c2sc3ncnc(N)c3c2C)cc1OC | 3.2 µM | 3.2 µM |
| Nc1ncnc2sc3c(c12)Cc1ccccc1-3 | 11 µM | 11 µM |
| CCOC(=O)C1CCc2c(sc3ncnc(N)c23)C1 (stereo not given) | 2.3 µM | 2.3 µM |
| NC(=O)C1CCc2c(sc3ncnc(N)c23)C1 (stereo not given) | 9.1 µM | 9.1 µM |
| Nc1ncnc2sc3c(c12)CCC(C(=O)N1CCOCC1)C3 (stereo not given) | 9.5 µM | 9.5 µM |
| Nc1ncnc2sc3c(c12)CCN(Cc1ccccc1)C3 | 0.66 µM | 0.66 µM |
| CC1(C)CCc2c(sc3ncnc(N)c23)C1 | 2.8 µM | 2.8 µM |
| Nc1ncnc2sc3c(c12)CCOC3 | 3.5 µM | 3.5 µM |
| Nc1ncnc2sc3c(c12)CCc1ccccc1-3 | 4.3 µM | 4.3 µM |
| Nc1ncnc2sc3c(c12)CCC(c1ccccc1)C3 (stereo not given) | > 20 µM | > 20 µM |
| Cc1c(-c2ccccc2)sc2ncnc(N)c12 | 17 µM | 17 µM |
| Nc1ncnc2sc3c(c12)CCC(C(=O)O)C3 (stereo not given) | > 20 µM | > 20 µM |

| SMILES | IC50 (LIM domain kinase 1 [1]) | IC50 (LIM domain kinase 1 [2]) |
| --- | --- | --- |
| Nc1ncnc2sc3c(c12)CCC(C(=O)NCc1ccccc1)C3 (stereo not given) | 8.6 µM | 8.6 µM |
| Nc1ncnc2sc3c(c12)CCCC3 | 4 µM | 4 µM |
| Nc1ncnc2sc3c(c12)CCC3 | 5.3 µM | 5.3 µM |
| Nc1ncnc2sc3c(c12)CCCCC3 | 2.5 µM | 2.5 µM |
| Cc1nc(N)c2c3c(sc2n1)CCCC3 | > 100 µM | > 100 µM |
| Nc1nc(S)nc2sc3c(c12)CCCCC3 | > 100 µM | > 100 µM |
| CSc1nc(N)c2c3c(sc2n1)CCC3 | > 100 µM | > 100 µM |
| Nc1nc(=S)[nH]c2sc3c(c12)CCCC3 | > 100 µM | > 100 µM |
| Nc1nc(SCC(=O)O)nc2sc3c(c12)CCCC3 | > 100 µM | > 100 µM |
| Nc1nc(-c2cccs2)nc2sc3c(c12)CCCC3 | > 100 µM | > 100 µM |
| CSc1nc(N)c2c3c(sc2n1)CCCCC3 | > 100 µM | > 100 µM |
| CNc1ncnc2sc3c(c12)CCCC3 | > 100 µM | > 100 µM |
| NCCNc1ncnc2sc3c(c12)CCCC3 | > 100 µM | > 100 µM |
| CC(Nc1ncnc2sc3c(c12)CCCC3)c1ccccc1 (stereo not given) | > 100 µM | > 100 µM |
| c1nc(N2CCCCC2)c2c3c(sc2n1)CCCC3 | > 100 µM | > 100 µM |
| Nc1ncnc2sc3c(c12)CC1CC3C1 | 1.8 µM | 1.8 µM |
| CC1CCc2c(sc3ncnc(N)c23)C1 (stereo not given) | 18 µM | 18 µM |
| CC1(C)CCc2sc3ncnc(N)c3c21 | 2.1 µM | 2.1 µM |
| CC1CCCc2sc3ncnc(N)c3c21 (stereo not given) | 2.7 µM | 2.7 µM |
| NC(=O)c1sc2ncccc2c1N | 37 µM | – |
| NC(=O)c1sc2ccccc2c1N | 33 µM | – |
| Nc1ncnc2c1sc1ncccc12 | 9 µM | – |
| CSc1nc(N)c2c3c(sc2n1)CCCC3 | > 100 µM | > 100 µM |
